US12016831B2, “Polidocanol for use as immunomodulating agent” (priority 2018, dated 2024)
Entries after “also recorded” stand apart in the source; their conditions may differ.

What was measured:
Assay type in all cases: in vivo, human
[1] = tested on: healthy volunteer subjects; test: Serum measurement of cytokines, chemokines and growth factors (Bio-Plex) after treatment
Description: (§1) The recruited patients had already been subjected to one or more polidocanol treatments, but had undergone a wash-out period of at least 4 months.
Blood was then drawn at about 30′-1 hour (T1h), 1 day (T1), 7 days (T7) and 30 days (T30) after treatment, measuring the following serum parameters: • a) “Pro-inflammatory” cytokines: IL-1β, IL-6, IL-7, IL-12 (p70), IL-17, IFN-γ, TNF-α; • b) “Anti-inflammatory” cytokines: IL-1ra, IL-4, IL-5, IL-9, IL-13; • c) Chemokines: IL-8/CXCL8, IP-10/CXCL10, MIP-1α/CCL3, MIP-1β, RANTES/CCL5, Eotaxin/CCL11; • d) Growth factors: b-FGF, PDGF-bb, VEGF, G-CSF.
In a limited number of patients measurements 30 minutes and 3 hours after the treatment were carried out in order to identify short-term responses and assess possible acute inflammation indicators.
(§2) Determinations a)-d) were carried out with Multiple Immunomagnetic Assay (Bio-Plex, Bio-Rad). Ig determinations were carried out with commercially available kits.
The determinations carried out were statistically analysed with the Friedman test and Dunns Multiple Comparison test. The most significant results are depicted in FIG. 1.

[2] = tested on: healthy volunteer subjects; test: Serum immunoglobulin and light chain levels after treatment
Description: as §1
Levels of IgM, IgG, IgA and of light chains kappa/lambda, kappa and lambda were also measured.
as §2

[3] = tested on: patients with autoimmune diseases (psoriasis, rheumatoid arthritis, systemic scleroderma); test: Cytokine and CRP levels in patients with autoimmune diseases after single administration; conditions: for Interleukin 1 beta level: T0 = 1; for Interleukin 13 level: T0 = 4; for Interleukin 6 level: T0 = 4.6; for Interleukin 7 level: T0 = 7; for CRP level: T0 = 32; for Interleukin 12 level / Interleukin 17 (25) level: T0 = 40; for Interleukin 9 level: T0 = 50; for TNF alpha level: T0 = 60
Description: A similar approach was used in a limited group of patients with autoimmune diseases. 10 patients (5 with psoriasis, 3 with rheumatoid arthritis, 2 with systemic scleroderma) were administered once the composition of the invention and a sample of blood was taken at T1 (8 days), T2 (30 days) and T3 (60 days). Cytokine and CRP (C-Reactive Protein, an index of inflammation) levels were measured by SCREEN CRP TEST and compared to those at time 0 (before the treatment).

[4] = tested on: individuals over 70 years old with a peripheral venous insufficiency; test: Serum CRP levels in individuals over 70 years old with osteoarticular problems; conditions: for CRP level: T2 (8 days)
Description: CRP levels in serum samples of individuals over 70 years old, chronically affected by osteoarticular problems, with or without pain, was also measured. CRP levels were measured within a group of 30 people, with a peripheral venous insufficiency. The subjects (23 females, 7 males) underwent sclerotherapy according to the invention. Then, CRP levels were measured at time 0 (beginning of treatment) at T1 (24 hours after treatment) and at T2 (8 days after treatment).

[5] = tested on: venous, reticular or capillary vessels of treated subjects; test: Clinical observation of treated subjects: venous functionality, sclerosing effect, side effects; conditions: for sclerosing effect (venous, reticular or capillary parietal damage): diluted solution according to the invention, intravenous
Description: It is administered parenterally via the intravenous route.
Moreover, its use, for at least 4 applications every two months, contributes in determining a higher overall well-being, associated with an anti-inflammatory activity and with the modulation of several molecular markers of the immune and endothelial system. This modulation in addition to ameliorating the venous system functionality, which is objectively observed in most of the treated subjects (95-98%) and results in a reduction of the limbs heaviness sensation and of orthostatic oedema and cellulitis, exert a systemic effects, often also accompanied by an improved skin trophism.
There is almost no evidence even of quite common reactions (0.1-1%), such as superficial thrombophlebitis, allergic dermatitis, hives, erythema, skin necrosis.
Therefore, a further aspect of the present invention is a composition comprising polidocanol in concentration below 0.1%, preferably of from 0.03 to 0.09% by weight, preferably of from 0.04 to 0.08%, preferably of 0.05%-0.06% in saline solution (0.9% w/V NaCl) for use as immunomodulating and anti-inflammatory agent.

[6] = 7 days post treatment (T7) vs basal

Substance: Polidocanol [diluted polidocanol]
- IL-8 level ([1]; 7-30 days): increases
- IL-1ra serum level [1, 6]: increase significantly; also recorded: significantly increased serum levels
- IL-1β serum level [1, 6]: increase significantly; also recorded: significantly increased serum levels
- IL-12 (p70) serum level [1, 6]: increase significantly; also recorded: significantly increased serum levels
- MIP-1β/CCL4 serum level [1, 6]: modest variation (increase); also recorded: significantly increased serum levels
- VEGF serum level [1, 6]: Increase; also recorded: significantly increased serum levels
- IL-7 serum level ([1]; 30 days (T30) vs T0, p<0.01): decreases in a statistically significant way; also recorded: decreases significantly; also recorded: decrease
- IL-12 serum level ([1]; 30 days (T30) vs T0, p<0.05): increases significantly; also recorded: increase
- IL-1ra serum level ([1]; 30 days (T30), p<0.05): increase
- IL-1β serum level ([1]; 30 days (T30), p<0.05): increase
- VEGF serum level ([1]; 30 days (T30), p<0.05): higher levels; also recorded: increase
- serum parameters, not-treated (T0) vs 1 day after treatment (T1) ([1]; T1, acute inflammatory reaction): None of the analysed parameters showed statistically significant differences
- PDGFbb level ([1]; after treatment): increasing
- b-FGF level ([1]; after treatment): increasing
- most of the serum parameters (except for IP-10/CXCL10) compared with T0 ([1]; first hour after treatment (T30-45 min)): increased
- IL-2, IL-10, IL-15, GM-CSF and MCP-1/CCL2 serum levels ([1]; in vivo): below the detection limits
- MIP-1α level ([1]; with respect to basal levels, within the 1st and 7th days): modest variation (increase)
- IgA level ([2]; T30 with respect to T7 and T0): decrease
- IgG level ([2]; T30 with respect to T7 and T0): decrease
- IgM level ([2]; T30 with respect to T7 and T0): decrease
- light chains levels ([2]; T30 with respect to T7 and T0): decrease
- immunogenic effect (IgM and IgG levels) ([2]; after 7 and 30 days, at the tested concentrations): absence of an immunogenic effect
- tested Ig levels ([2]; between T0 and T7): none of the tested Ig fluctuates
- Interleukin 1 beta level ([3]; T1 (8 days) after single administration, average, 10 patients): 1.5
- Interleukin 13 level ([3]; T1 (8 days)): 5
- Interleukin 6 level ([3]; T1 (8 days)): 4.8
- Interleukin 7 level ([3]; T1 (8 days)): 9
- CRP level ([3]; T1 (8 days)): 30
- Interleukin 12 level ([3]; T1 (8 days)): 42
- Interleukin 17 (25) level ([3]; T1 (8 days)): 45
- Interleukin 9 level ([3]; T1 (8 days)): 80
- TNF alpha level ([3]; T1 (8 days)): 52
- Interleukin 1 beta level ([3]; T2 (30 days)): 1.7
- Interleukin 13 level ([3]; T2 (30 days)): 5
- Interleukin 6 level ([3]; T2 (30 days)): 3.7
- Interleukin 7 level ([3]; T2 (30 days)): 3
- CRP level ([3]; T2 (30 days)): 24
- Interleukin 12 level ([3]; T2 (30 days)): 36
- Interleukin 17 (25) level ([3]; T2 (30 days)): 32
- Interleukin 9 level ([3]; T2 (30 days)): 100
- TNF alpha level ([3]; T2 (30 days)): 42
- Interleukin 1 beta level ([3]; T3 (60 days)): 1.2
- Interleukin 13 level ([3]; T3 (60 days)): 4
- Interleukin 6 level ([3]; T3 (60 days)): 3.2
- Interleukin 7 level ([3]; T3 (60 days)): 3
- CRP level ([3]; T3 (60 days)): 16
- Interleukin 12 level ([3]; T3 (60 days)): 32
- Interleukin 17 (25) level ([3]; T3 (60 days)): 28
- Interleukin 9 level ([3]; T3 (60 days)): 120
- TNF alpha level ([3]; T3 (60 days)): 48
- CRP levels vs time 0 ([4]; T1 (24 hours after treatment), 30 people over 70): did not show any variation
- individuals showing a notable reduction of CRP levels ([4]; T2 (8 days after treatment), 27 out of 30): 90%
- CRP level ([4]; case with starting CRP level 15 mg/l): 10 mg/L
- CRP level ([4]; case with starting CRP level 18 mg/l): 9 mg/L
- CRP level ([4]; case with starting CRP level 27 mg/l): 16 mg/L
- treated subjects in which ameliorated venous system functionality is objectively observed ([5]; at least 4 applications every two months): 95-98%
- side effects ([5]; concentrations of the treatment according to the invention, vs traditional sclerotherapy): very limited to zero side effects
- sclerosing effect (venous, reticular or capillary parietal damage) [5]: does not exert a sclerosing effect
- sclerosing effect (venous, reticular or capillary parietal damage) ([5]; listed as polidocanol): non-sclerosing effect
- polidocanol concentrations having a sclerosing effect on small calibre capillaries or reticular veins ([5]; human, in vivo): ≥ 0.12%
